Test results as given in patent US20260191192A1, “ANTIMICROBIAL COMPOSITIONS COMPRISING PELARGONIC ACID” (LANXESS Corporation, priority 2023, published 2026).

Assays:
[1] = system: mixed bacterial inoculum (Table 6); test: Challenge test (preservative efficacy), mixed bacterial inoculum, full pool (Table 6); format: cell-based
Description: (§1) The preservative activity in representative rinse-off and leave-on formulations was evaluated using a modification of the Personal Care Products Council (PCPC—formerly the Cosmetic, Toiletry and Fragrance Association) protocol (Machtiger, et al. 2001. Determination of the Efficacy of Preservation of Non-Eye Area Water Miscible Cosmetic and Toiletry Formulations: Collaborative Study. J of AOAC International. 84:1, 101-109).
(§2) This evaluation was conducted using a four week, two or three-cycle (i.e., two-cycle for personal care and three-cycle for home care applications) microbial preservative efficacy test (i.e., challenge test) at 25° C. to determine the preservative efficacy of each treatment. Phenoxyethanol, benzyl alcohol and pelargonic acid were tested alone and in various combinations. The pelargonic acid used in the testing was purchased from Sigma-Aldrich. Combinations of phenoxyethanol or benzyl alcohol with benchmark multifunctional booster compounds were also tested for comparison. The preservative and booster ingredients were dosed and mixed thoroughly at room temperature into various formulations, specifically different personal care formulations including a lotion (leave-on, Table 1), a micellar water (rinse-off, Table 2), and a body wash formulation (rinse-off, Table 3) and different home care formulations including a manual dishwashing formulation (Table 4) and a liquid laundry detergent formulation (Table 5). […] Carbomers are a commonly used synthetic rheological modifier in personal care products. The formulation below was made by heating the aqueous (A) and oil (B) phases separately to 75-80° C. The oil phase was then poured into the aqueous phase and mixed by a homogenizer at approximately 45° C. The formed oil-in-water emulsion was cooled to room temperature. Triethanolamine and/or diluted sodium hydroxide was used to adjust the final pH to 6.3 or 6.5 (as indicated in the examples below).
(§3) After dosing, the samples were divided into two separate five gram aliquots. One aliquot was inoculated with 50 μl of a diluted bacterial pool, and the second aliquot was inoculated with 50 μl of a diluted fungal pool as described below. Unpreserved product samples were included as a growth control.
(§4) For personal care products, a mixed bacterial inoculum was prepared using 24-hour cultures of the test bacteria (Table 6) grown in trypticase soy broth (TSB). For home care products, a mixed bacterial inoculum was prepared using 24-hour cultures of the test bacteria either from Table 6 (full pool) or Table 7 (simplified pool) grown in trypticase soy broth (TSB). Details are disclosed in the home care examples below. Equal volumes of the bacterial test strains were combined and diluted one to ten in phosphate buffer to obtain an inoculum of approximately 5×10^7 to 5×10^8 colony forming units per ml (cfu/ml). The test samples were inoculated with 1% of the mixed bacterial inoculum. For both personal care and home care products, a mixed fungal inoculum was prepared using cell suspensions of the yeast Candida albicans ATCC #10231 and the mold Aspergillus brasiliensis ATCC #16404 in phosphate buffer. Equal volumes of the fungal test strains were combined and diluted one to ten with phosphate buffer to obtain an inoculum of approximately 5×10^6 to 5×10^7 cfu/ml. The test samples were inoculated with 1% of the mixed fungal inoculum.
(§5) For personal care products, the samples were subjected to two microbial challenges at time zero and inoculated a second time after seven days. For home care products, the samples were subjected to three microbial challenges at time zero and inoculated a second and third time after seven and fourteen days, respectively. The number of microorganisms added to each sample was determined by a standard Most Probable Number (MPN) determination in Trypticase Soy Broth (TSB) for bacteria and Potato Dextrose Broth (PDB) for fungi. Samples were incubated at 25° C. for the test duration of four weeks.

[2] = system: mixed bacterial inoculum for home care (Table 7); test: Challenge test (preservative efficacy), mixed bacterial inoculum, simplified pool (Table 7); format: cell-based, Pseudomonas aeruginosa, Staphylococcus aureus; settings: dosed 1.0 wt %
Description: as §1, §2, §3, §4, §5

[3] = system: mixed fungal inoculum: Candida albicans ATCC #10231 and Aspergillus brasiliensis ATCC #16404; test: Challenge test (preservative efficacy), mixed fungal inoculum; format: cell-based
Description: as §1, §2, §3, §4, §5

[4] = system: bacteria (Table 6 pool) and fungi; test: Challenge test, overall result (full bacteria pool and fungi); format: cell-based
Description: as §1, §2, §3, §4, §5

[5] = system: bacteria (Table 7 pool) and fungi; test: Challenge test, overall result (simplified bacteria pool and fungi); format: cell-based; settings: dosed 1.0 wt %
Description: as §1, §2, §3, §4, §5

[6] = ZenBio Cupric Ion Chelating (CIC) Assay; format: physicochemical; settings: calculated from a EDTA calibration curve, Pelargonic Acid at 775 μM
Description: The chelation property of the pelargonic acid was measured by using the ZenBio Cupric Ion Chelating (CIC) Assay (Cat #AOX-16). The assay measured the capacity of the pelargonic acid to chelate free cupric ions in solution, thereby inhibiting Cu(II) binding to pyrocatechol violet (PV) for generating a highly colored complex. The absorbance of the Cupric-PV complex was measured at a wavelength of 632 nm. The cupric ion chelating activity was determined as the percent of total PV over the Cu(II) binding. Ethylenediaminetetraacetic acid (EDTA), a well-known chelating agent, was used as a positive control. A series of EDTA with 7 different concentrations from 0 to 1000 μM were prepared and their corresponding absorbance measured and used as the calibration curve (Cupric ion chelating (%) vs. EDTA concentration). Percent cupric ion chelating was determined following the following calculations and Equation 1. The background absorbance value by averaging the absorbance values of the three background wells (no CuSO4 or sample). The average background absorbance was then subtracted from all the sample absorbance values. The maximal absorbance value (Absmax) was determined by averaging the absorbance values of the three wells containing CuSO4, PV and assay buffer. Abstest in Equation 1 is the absorbance of the test sample.
The calibration curve (Cupric ion chelating (%) vs. EDTA concentration) was fit by using a polynomial curve after log 10 transforming the concentrations (R2>0.98).

[7] = body wash, pH 6.5, Example 1E, dosed 0.5 wt %
[8] = lotion with carbomer, pH 6.3, Example 1A, dosed 0.5 wt %
[9] = lotion with carbomer, pH 6.3, Example 1A, dosed 1.0 wt %
[10] = lotion with carbomer, pH 6.5, Example 1I, total dosing 0.8 wt %
[11] = liquid laundry detergent, pH 7.5, Example 1H, dosed 1.0 wt %
[12] = micellar water, pH 6.0, Example 1B, dosed 0.5 wt %
[13] = micellar water, pH 6.0, Example 1C, dosed 0.3 wt %

CCCCCCCCC(=O)O [Pelargonic Acid, nonanoic acid]
Bacteria growth rating Result [1, 7]: Fail (growth rating score caused by bacteria of 2 or more at days 21-28 of the testing period)
Bacteria growth rating Result ([1]; liquid laundry detergent, pH 7.5, full bacteria pool, Example 1H, dosed 1.0 wt %): Fail (growth rating score caused by bacteria of 2 or more at days 21-28 of the testing period)
Bacteria growth rating Result [1, 8]: Fail (growth rating score caused by bacteria of 2 or more at days 21-28 of the testing period)
Bacteria growth rating Result [1, 9]: Fail (growth rating score caused by bacteria of 2 or more at days 21-28 of the testing period)
Bacteria growth rating Result ([1]; lotion with carbomer, pH 6.3, Example 1D, dosed 0.8 wt %): Fail (growth rating score caused by bacteria of 2 or more at days 21-28 of the testing period)
Bacteria growth rating Result [1, 10]: Fail (growth rating score caused by bacteria of 2 or more at days 21-28 of the testing period)
Bacteria growth rating Result ([1]; micellar water, pH 6.0, bacteria inoculation ~10^7 cfu/ml, Example 1B, dosed 0.5 wt %): Fail (growth rating score caused by bacteria of 2 or more at days 21-28 of the testing period)
Bacteria growth rating Result ([1]; micellar water, pH 6.0, bacteria inoculation ~10^8 cfu/ml, Example 1C, dosed 0.3 wt %): Fail (growth rating score caused by bacteria of 2 or more at days 21-28 of the testing period)
Bacteria growth rating Result ([2]; liquid laundry detergent, pH 7.5, simplified bacteria pool, Example 1G): Fail (growth rating score caused by bacteria of 2 or more at days 21-28 of the testing period)
Bacteria growth rating Result ([2]; manual dishwashing formulation, pH 5.5, simplified bacteria pool, Example 1F): Fail (growth rating score caused by bacteria of 2 or more at days 21-28 of the testing period)
Fungi growth rating Result [3, 7]: Pass (growth rating score caused by fungi of 2 or less at days 21-28 of the testing period)
Fungi growth rating Result ([3]; liquid laundry detergent, pH 7.5, Example 1G, dosed 1.0 wt %): Fail (growth rating score caused by fungi of more than 2 at days 21-28 of the testing period)
Fungi growth rating Result [3, 11]: Fail (growth rating score caused by fungi of more than 2 at days 21-28 of the testing period)
Fungi growth rating Result [3, 8]: Fail (growth rating score caused by fungi of more than 2 at days 21-28 of the testing period)
Fungi growth rating Result [3, 9]: Fail (growth rating score caused by fungi of more than 2 at days 21-28 of the testing period)
Fungi growth rating Result [3, 10]: Fail (growth rating score caused by fungi of more than 2 at days 21-28 of the testing period)
Fungi growth rating Result ([3]; manual dishwashing formulation, pH 5.5, Example 1F, dosed 1.0 wt %): Fail (growth rating score caused by fungi of more than 2 at days 21-28 of the testing period)
Fungi growth rating Result [3, 12]: Fail (growth rating score caused by fungi of more than 2 at days 21-28 of the testing period)
Fungi growth rating Result [3, 13]: Fail (growth rating score caused by fungi of more than 2 at days 21-28 of the testing period)
Overall Result [4, 7]: Fail
Overall Result [4, 11]: Fail
Overall Result [4, 8]: Fail
Overall Result [4, 9]: Fail
Overall Result [4, 10]: Fail
Overall Result [4, 12]: Fail
Overall Result [4, 13]: Fail
Overall Result ([5]; liquid laundry detergent, pH 7.5, Example 1G): Fail
Overall Result ([5]; manual dishwashing formulation, pH 5.5, Example 1F): Fail
Calculated EDTA equivalent [6]: 667 µM
